Laboratory results from US10266544B2, “Aryl substituted aminomethyl spectinomycin analogs as antibacterial agents” (ST. JUDE CHILDREN'S RESEARCH HOSPITAL, INC., priority 2013, dated 2019).
In brackets after ≈: the same amount, converted by molar mass. Counter-ions that a name gives are not always drawn. Like-named read-outs stand apart in the source and are kept apart here.

Columns and labels:
Type in all cases: cell-based
[1] = test system: Staphylococcus aureus (ATCC 29213); experiment: MIC determination, microbroth dilution
E. coli K12 ΔtolC = experiment: microbe, parasite or virus in culture; settings: Escherichia coli, read-out: MIC E.c. Δtolc
Bacillus anthracis = experiment: microbe, parasite or virus in culture; settings: read-out: MIC B.a.
[2] = test system: Proteus vulgaris (ATCC 33420); experiment: MIC determination, microbroth dilution; settings: ATCC33420
[3] = test system: M. tuberculosis clinical isolates; experiment: microbe, parasite or virus in culture; settings: Mycobacterium tuberculosis
[4] = test system: Enterococcus faecalis (ATCC 33186); experiment: MIC determination, microbroth dilution
[5] = test system: Streptococcus pyogenes (ATCC 700294); experiment: MIC determination, microbroth dilution; settings: ATCC700294; Streptococcus pyogenes (ATCC 700294); read-out: MIC S. py.
[6] = test system: Escherichia coli (ATCC 700926); experiment: MIC determination, microbroth dilution; settings: ATCC700926; Escherichia coli (ATCC 700926); read-out: MIC E.c.
Protocol: MICs were determined using the microbroth dilution method according to Clinical Laboratory Standards Institute (CLSI; National, C. F. C. L. S., Methods for Dilution Antimicrobial Susceptibility Tests for Bacteria Grow aerobically-Seventh Edition: Approved Standard M7-A7, CLSI, Wayne, Pa., USA, 2008) and were read by visual inspection. Two fold serial dilutions of antibiotic in 100 μL of the appropriate broth media were first prepared in 96-well round bottom microtiter plates (Nalge Nunc International, Rochester, N.Y., USA). An equivalent volume (100 μL) of bacterial broth inocula containing approximately 10^5 bacterial cfu/mL was added to each well to give final concentrations of drug starting at 200 μg/mL and the plates were incubated aerobically at 37° C. M. tuberculosis microtiter plates were incubated for 7 days and all other strains were incubated overnight. After incubations, in all cases the MIC was recorded as the lowest concentration of drug that prevented bacterial growth.

[7] = test system: Bacillus subtilis (ATCC 23857); experiment: MIC determination, microbroth dilution; settings: ATCC23857; Bacillus subtilis (ATCC 23857); read-out: MIC B.s.
[8] = test system: Burkholderia cepacia (ATCC 25416); experiment: MIC determination, microbroth dilution; settings: Burkholderia cepacia
[9] = test system: acinetobacter baumannii (ATCC 19606); experiment: MIC determination, microbroth dilution; settings: ATCC19606
[10] = test system: Streptococcus pneumoniae (R6); experiment: MIC determination, microbroth dilution; settings: Streptococcus pneumoniae (R6); read-out: MIC S. pn.
[11] = test system: Pseudomonas aeruginosa (PA01); experiment: MIC determination, microbroth dilution
[12] = test system: Klebsiella pneumoniae (ATCC 33495); experiment: MIC determination, microbroth dilution; settings: ATCC33495
[13] = test system: Proteus mirabilis (ATCC 25933); experiment: MIC determination, microbroth dilution; settings: ATCC25933
[14] = test system: MRSA, Staphylococcus aureus (NRS70); experiment: MIC determination, microbroth dilution; settings: read-out: MIC MRSA
[15] = test system: Bacillus anthracis, Sterne 34F2; experiment: microbe, parasite or virus in culture; settings: STERNE34F2, read-out: MIC B.a.
[16] = test system: Stenotrophomonas maltophilia (ATCC 13637); experiment: MIC determination, microbroth dilution; settings: ATCC13637; Stenotrophomonas maltophilia (ATCC 13637); read-out: MIC S.m.
[17] = Staphylococcus aureus, ATCC29213, read-out: MIC S.a.
[18] = ATCC25416, read-out: MIC B.c., Burkholderia cepacia (ATCC 25416)
[19] = ATCC25416, read-out: MIC B.c., Burkholderia cepacia, Table 6
[20] = ATCC33186, Enterococcus faecalis (ATCC 33186), read-out: MIC E.f.
[21] = ATCC29213, Staphylococcus aureus (ATCC 29213), read-out: MIC S.a.

Row | SMILES | MIC ([3]; H37RV, read-out: MIC H37Rv) [µg/mL] | MIC [5] [µg/mL] | MIC [7] [µg/mL] | MIC [10] [µg/mL] | MIC [15] [µg/mL] | MIC [4, 20] [µg/mL] | MIC ([14]; Staphylococcus aureus (NRS70)) [µg/mL] | MIC [1, 21] [µg/mL] | other results
1 | CN[C@@H]1[C@H](O)[C@H](NC)[C@H]2O[C@]3(O)[C@H](O[C@@H]2[C@H]1O)O[C@H](C)C[C@@]3(O)CNCCc1ccc(C)cc1 [compound 32, 3′-(R)-3′-[(4-Methyl)]Phenethylaminomethyl)]Dihydrospectinomycin Trihydrochloride] | 3.1 | 3.1 to 6.3 | 3.1 to 6.3 | 6.3 | 12.5 | – | – | – | MIC [1, 17]: 12.5 µg/mL; MIC (E. coli K12 ΔtolC): 50 to 100 µg/mL; MIC (Bacillus anthracis): 12.5 µg/mL; MIC [2]: 100 µg/mL; MIC ([3]; read-out: MIC TN022): 6.3 µg/mL; MIC ([3]; read-out: MIC TN026): 6.3 µg/mL; MIC ([4]; Enterococcus faecalis, ATCC33186, read-out: MIC E.f.): 12.5 µg/mL; MIC [6]: 100 to 200 µg/mL; MIC [8, 18]: > 200 µg/mL; MIC [8, 19]: ≥ 200 µg/mL; MIC [9]: > 200 µg/mL; MIC [11]: ≥ 200 µg/mL; MIC [12]: > 200 µg/mL; MIC [13]: > 200 µg/mL; MIC ([14]; Staphylococcus aureus): 12.5 to 25 µg/mL; MIC [16]: 6.3 µg/mL
2 | CN[C@@H]1[C@H](O)[C@H](NC)[C@H]2O[C@]3(O)[C@H](O[C@@H]2[C@H]1O)O[C@H](C)C[C@@]3(O)CNCCc1ccc(F)cc1 [compound 33, 3′-(R)-3′-(4-FLUOROphenethylaminomethyl)dihydrospectinomycin Trihydrochloride] | 3.1 | – | 3.1 to 6.3 | – | 12.5 | 25 | 25 to 50 | – | MIC [1, 17]: 12.5 to 25 µg/mL; MIC (E. coli K12 ΔtolC): 6.3 µg/mL; MIC (Bacillus anthracis): 12.5 µg/mL; MIC ([3]; read-out: MIC TN022): 6.3 µg/mL; MIC ([3]; read-out: MIC TN026): 6.3 µg/mL; MIC [6]: 12.5 µg/mL; MIC [8, 18]: ≥ 200 µg/mL; MIC [8, 19]: > 200 µg/mL; MIC [9]: > 200 µg/mL; MIC [12]: 200 µg/mL
3 | CN[C@@H]1[C@H](O)[C@H](NC)C2O[C@]3(O)C(OC2[C@H]1O)O[C@H](C)C[C@@]3(O)CNCc1ccc(-c2ccccc2)cc1 (some centres unmarked) [compound 40] | 100 (≈ 189 µM) | 6.25 (≈ 11.8 µM) | 50 (≈ 94.4 µM) | 12.5 (≈ 23.6 µM) | > 200 | 25 (≈ 47.2 µM) | 100 (≈ 189 µM) | 100 (≈ 189 µM) | –
4 | CN[C@@H]1[C@H](O)[C@H](NC)C2O[C@]3(O)C(OC2[C@H]1O)O[C@H](C)C[C@@]3(O)CNCc1cccc(C(=O)OC)c1 (some centres unmarked) [compound 41] | 50 (≈ 97.7 µM) | 50 (≈ 97.7 µM) | 50 (≈ 97.7 µM) | 50 (≈ 97.7 µM) | > 200 | 200 (≈ 391 µM) | 200 (≈ 391 µM) | 200 (≈ 391 µM) | –
5 | CN[C@@H]1[C@H](O)[C@H](NC)C2O[C@]3(O)C(OC2[C@H]1O)O[C@H](C)C[C@@]3(O)CNCc1ccc(CO)o1 (some centres unmarked) [compound 42] | 25 (≈ 52.8 µM) | 50 (≈ 106 µM) | 50 (≈ 106 µM) | 50 (≈ 106 µM) | > 200 | 200 (≈ 422 µM) | > 200 | 200 (≈ 422 µM) | –
6 | CN[C@@H]1[C@H](O)[C@H](NC)C2O[C@]3(O)C(OC2[C@H]1O)O[C@H](C)C[C@@]3(O)CNCc1ccc2ccn(C)c2c1 (some centres unmarked) [compound 43] | 100 (≈ 197 µM) | 100 (≈ 197 µM) | 12.5 (≈ 24.7 µM) | 200 (≈ 395 µM) | > 200 | 100 (≈ 197 µM) | 12.5 (≈ 24.7 µM) | 50 (≈ 98.7 µM) | –
7 | CN[C@@H]1[C@H](O)[C@H](NC)C2O[C@]3(O)C(OC2[C@H]1O)O[C@H](C)C[C@@]3(O)CNCc1ccc(Cc2ccccc2)cc1 (some centres unmarked) [compound 44] | 100 (≈ 184 µM) | 3.13 (≈ 5.76 µM) | 25 (≈ 46 µM) | 6.25 (≈ 11.5 µM) | > 200 | 25 (≈ 46 µM) | 25 (≈ 46 µM) | 50 (≈ 92 µM) | –
8 | CN[C@@H]1[C@H](O)[C@H](NC)C2O[C@]3(O)C(OC2[C@H]1O)O[C@H](C)C[C@@]3(O)CNCc1ccc(OC)c2c1CCCC2 (some centres unmarked) [compound 45] | 200 (≈ 372 µM) | 25 (≈ 46.5 µM) | 50 (≈ 93 µM) | 25 (≈ 46.5 µM) | > 200 | 50 (≈ 93 µM) | 200 (≈ 372 µM) | 100 (≈ 186 µM) | –
9 | CN[C@@H]1[C@H](O)[C@H](NC)C2O[C@]3(O)C(OC2[C@H]1O)O[C@H](C)C[C@@]3(O)CNCc1ccc(C)o1 (some centres unmarked) [compound 46] | 25 (≈ 54.6 µM) | 12.5 (≈ 27.3 µM) | 50 (≈ 109 µM) | 12.5 (≈ 27.3 µM) | > 200 | 100 (≈ 219 µM) | > 200 | 50 (≈ 109 µM) | –
10 | CN[C@@H]1[C@H](O)[C@H](NC)C2O[C@]3(O)C(OC2[C@H]1O)O[C@H](C)C[C@@]3(O)CNCCC(C)c1ccccc1 (some centres unmarked) [compound 47] | 6.3 (≈ 12.7 µM) | 25 (≈ 50.4 µM) | 12.5 (≈ 25.2 µM) | 25 (≈ 50.4 µM) | > 200 | 25 (≈ 50.4 µM) | 100 (≈ 202 µM) | 25 (≈ 50.4 µM) | –
11 | CN[C@@H]1[C@H](O)[C@H](NC)C2O[C@]3(O)C(OC2[C@H]1O)O[C@H](C)C[C@@]3(O)CNCc1cccn1C (some centres unmarked) [compound 48] | 200 (≈ 438 µM) | 200 (≈ 438 µM) | 12.5 (≈ 27.4 µM) | 100 (≈ 219 µM) | > 200 | > 200 | 200 (≈ 438 µM) | 200 (≈ 438 µM) | –
12 | CN[C@@H]1[C@H](O)[C@H](NC)C2O[C@]3(O)C(OC2[C@H]1O)O[C@H](C)C[C@@]3(O)CNCC(C)c1ccccc1 (some centres unmarked) [compound 49] | 100 (≈ 208 µM) | 12.5 (≈ 26 µM) | 12.5 (≈ 26 µM) | 12.5 (≈ 26 µM) | > 200 | 6.25 (≈ 13 µM) | 12.5 (≈ 26 µM) | 50 (≈ 104 µM) | –
